Measured values taken from the NIST ThermoML archive (doi:10.1016/j.jct.2008.06.016).
± gives the expanded uncertainty stated by the source.

Test: molar heat capacity at constant pressure
Conditions: 101.33 kPa, Crystal, Small sample (50 mg) DSC

SMILES: NC(=O)c1ccccc1O [2-hydroxybenzamide]
- molar heat capacity at constant pressure (280.4 K): 124.1 ± 1.9 J/K/mol
- molar heat capacity at constant pressure (285.4 K): 126.3 ± 2 J/K/mol
- molar heat capacity at constant pressure (290.4 K): 128.7 ± 2 J/K/mol
- molar heat capacity at constant pressure (295.4 K): 130.9 ± 2 J/K/mol
- molar heat capacity at constant pressure (300.4 K): 133.1 ± 2.1 J/K/mol
- molar heat capacity at constant pressure (305.4 K): 135.6 ± 2.1 J/K/mol
- molar heat capacity at constant pressure (310.4 K): 138 ± 2.2 J/K/mol
- molar heat capacity at constant pressure (315.4 K): 140.5 ± 2.2 J/K/mol
- molar heat capacity at constant pressure (320.4 K): 142.9 ± 2.2 J/K/mol
- molar heat capacity at constant pressure (325.4 K): 145.5 ± 2.2 J/K/mol
- molar heat capacity at constant pressure (330.4 K): 148.1 ± 2.3 J/K/mol
- molar heat capacity at constant pressure (335.4 K): 150.5 ± 2.3 J/K/mol
- molar heat capacity at constant pressure (340.4 K): 153.1 ± 2.4 J/K/mol
- molar heat capacity at constant pressure (345.4 K): 155.6 ± 2.4 J/K/mol
- molar heat capacity at constant pressure (350.4 K): 158.2 ± 2.4 J/K/mol
- molar heat capacity at constant pressure (355.4 K): 160.6 ± 2.5 J/K/mol
- molar heat capacity at constant pressure (360.4 K): 163.3 ± 2.5 J/K/mol
- molar heat capacity at constant pressure (365.4 K): 165.6 ± 2.6 J/K/mol
- molar heat capacity at constant pressure (370.4 K): 168.1 ± 2.6 J/K/mol
- molar heat capacity at constant pressure (375.4 K): 170.3 ± 2.7 J/K/mol
- molar heat capacity at constant pressure (380.4 K): 172.9 ± 2.7 J/K/mol
- molar heat capacity at constant pressure (385.4 K): 175.4 ± 2.7 J/K/mol
- molar heat capacity at constant pressure (390.4 K): 177.9 ± 2.7 J/K/mol
- molar heat capacity at constant pressure (395.4 K): 180.6 ± 2.8 J/K/mol

SMILES: O=C(O)c1ccc(O)cc1 [4-hydroxybenzoic acid]
- molar heat capacity at constant pressure (280.8 K): 138.9 ± 2.2 J/K/mol
- molar heat capacity at constant pressure (285.8 K): 141.3 ± 2.2 J/K/mol
- molar heat capacity at constant pressure (290.8 K): 143.5 ± 2.2 J/K/mol
- molar heat capacity at constant pressure (295.8 K): 145.7 ± 2.2 J/K/mol
- molar heat capacity at constant pressure (300.7 K): 148 ± 2.3 J/K/mol
- molar heat capacity at constant pressure (305.8 K): 149.7 ± 2.3 J/K/mol
- molar heat capacity at constant pressure (310.8 K): 151.8 ± 2.3 J/K/mol
- molar heat capacity at constant pressure (315.8 K): 154.6 ± 2.4 J/K/mol
- molar heat capacity at constant pressure (320.8 K): 156.4 ± 2.4 J/K/mol
- molar heat capacity at constant pressure (325.8 K): 158.7 ± 2.5 J/K/mol
- molar heat capacity at constant pressure (330.8 K): 161.4 ± 2.5 J/K/mol
- molar heat capacity at constant pressure (335.8 K): 163.8 ± 2.6 J/K/mol
- molar heat capacity at constant pressure (340.8 K): 166.3 ± 2.6 J/K/mol
- molar heat capacity at constant pressure (345.8 K): 168.6 ± 2.6 J/K/mol
- molar heat capacity at constant pressure (350.8 K): 171.1 ± 2.7 J/K/mol
- molar heat capacity at constant pressure (355.8 K): 173.4 ± 2.7 J/K/mol
- molar heat capacity at constant pressure (360.8 K): 175.5 ± 2.7 J/K/mol
- molar heat capacity at constant pressure (365.7 K): 177.8 ± 2.7 J/K/mol
- molar heat capacity at constant pressure (370.7 K): 180 ± 2.8 J/K/mol
- molar heat capacity at constant pressure (375.7 K): 182 ± 2.8 J/K/mol
- molar heat capacity at constant pressure (380.8 K): 184.4 ± 2.8 J/K/mol
- molar heat capacity at constant pressure (385.8 K): 186.7 ± 2.9 J/K/mol
- molar heat capacity at constant pressure (390.8 K): 188.9 ± 2.9 J/K/mol
- molar heat capacity at constant pressure (395.8 K): 191 ± 3 J/K/mol
- molar heat capacity at constant pressure (400.8 K): 193.1 ± 3 J/K/mol
- molar heat capacity at constant pressure (405.8 K): 195.1 ± 3 J/K/mol
- molar heat capacity at constant pressure (410.8 K): 197 ± 3.1 J/K/mol
- molar heat capacity at constant pressure (415.8 K): 198.7 ± 3.1 J/K/mol
- molar heat capacity at constant pressure (420.8 K): 200.4 ± 3.1 J/K/mol
- molar heat capacity at constant pressure (425.8 K): 202.2 ± 3.2 J/K/mol
- molar heat capacity at constant pressure (430.8 K): 204.5 ± 3.2 J/K/mol
- molar heat capacity at constant pressure (435.8 K): 207.1 ± 3.2 J/K/mol
- molar heat capacity at constant pressure (440.8 K): 209.5 ± 3.2 J/K/mol
- molar heat capacity at constant pressure (445.8 K): 211.6 ± 3.2 J/K/mol
- molar heat capacity at constant pressure (450.8 K): 213.8 ± 3.3 J/K/mol
- molar heat capacity at constant pressure (455.8 K): 215.9 ± 3.3 J/K/mol
- molar heat capacity at constant pressure (460.7 K): 218.2 ± 3.4 J/K/mol

SMILES: O=C(O)c1cccc(O)c1 [3-hydroxybenzoic acid]
- molar heat capacity at constant pressure (280.4 K): 134.6 ± 2.1 J/K/mol
- molar heat capacity at constant pressure (285.5 K): 136.8 ± 2.1 J/K/mol
- molar heat capacity at constant pressure (290.5 K): 138.9 ± 2.2 J/K/mol
- molar heat capacity at constant pressure (295.4 K): 141.2 ± 2.2 J/K/mol
- molar heat capacity at constant pressure (300.4 K): 143.5 ± 2.2 J/K/mol
- molar heat capacity at constant pressure (305.4 K): 145.8 ± 2.2 J/K/mol
- molar heat capacity at constant pressure (310.4 K): 147.9 ± 2.3 J/K/mol
- molar heat capacity at constant pressure (315.4 K): 150.2 ± 2.3 J/K/mol
- molar heat capacity at constant pressure (320.4 K): 152.7 ± 2.3 J/K/mol
- molar heat capacity at constant pressure (325.5 K): 155 ± 2.4 J/K/mol
- molar heat capacity at constant pressure (330.5 K): 157.4 ± 2.4 J/K/mol
- molar heat capacity at constant pressure (335.5 K): 159.7 ± 2.5 J/K/mol
- molar heat capacity at constant pressure (340.5 K): 162.2 ± 2.5 J/K/mol
- molar heat capacity at constant pressure (345.5 K): 164.5 ± 2.6 J/K/mol
- molar heat capacity at constant pressure (350.4 K): 166.9 ± 2.6 J/K/mol
- molar heat capacity at constant pressure (355.4 K): 169.1 ± 2.7 J/K/mol
- molar heat capacity at constant pressure (360.4 K): 171.3 ± 2.7 J/K/mol
- molar heat capacity at constant pressure (365.4 K): 173.7 ± 2.7 J/K/mol
- molar heat capacity at constant pressure (370.4 K): 175.9 ± 2.7 J/K/mol
- molar heat capacity at constant pressure (375.4 K): 177.9 ± 2.7 J/K/mol
- molar heat capacity at constant pressure (380.4 K): 180.8 ± 2.8 J/K/mol
- molar heat capacity at constant pressure (385.4 K): 183.8 ± 2.8 J/K/mol
- molar heat capacity at constant pressure (390.5 K): 186.3 ± 2.9 J/K/mol
- molar heat capacity at constant pressure (395.5 K): 188.7 ± 2.9 J/K/mol
- molar heat capacity at constant pressure (400.5 K): 190.6 ± 3 J/K/mol
- molar heat capacity at constant pressure (405.5 K): 192.6 ± 3 J/K/mol
- molar heat capacity at constant pressure (410.5 K): 194.6 ± 3 J/K/mol
- molar heat capacity at constant pressure (415.5 K): 196.6 ± 3.1 J/K/mol
- molar heat capacity at constant pressure (420.5 K): 198.3 ± 3.1 J/K/mol
- molar heat capacity at constant pressure (425.5 K): 200.3 ± 3.1 J/K/mol
- molar heat capacity at constant pressure (430.5 K): 202.5 ± 3.2 J/K/mol
- molar heat capacity at constant pressure (435.5 K): 205 ± 3.2 J/K/mol
- molar heat capacity at constant pressure (440.5 K): 207.5 ± 3.2 J/K/mol
- molar heat capacity at constant pressure (445.5 K): 209.9 ± 3.2 J/K/mol
- molar heat capacity at constant pressure (450.5 K): 212.1 ± 3.3 J/K/mol
- molar heat capacity at constant pressure (455.5 K): 214.8 ± 3.3 J/K/mol
- molar heat capacity at constant pressure (460.4 K): 218.8 ± 3.4 J/K/mol

SMILES: O=C(O)c1ccccc1O [2-hydroxybenzoic acid]
- molar heat capacity at constant pressure (280.4 K): 128.5 ± 2 J/K/mol
- molar heat capacity at constant pressure (285.5 K): 130 ± 2 J/K/mol
- molar heat capacity at constant pressure (290.5 K): 131.6 ± 2.1 J/K/mol
- molar heat capacity at constant pressure (295.4 K): 133.5 ± 2.1 J/K/mol
- molar heat capacity at constant pressure (300.4 K): 135.4 ± 2.1 J/K/mol
- molar heat capacity at constant pressure (305.4 K): 137.4 ± 2.2 J/K/mol
- molar heat capacity at constant pressure (310.4 K): 139.4 ± 2.2 J/K/mol
- molar heat capacity at constant pressure (315.4 K): 141.4 ± 2.2 J/K/mol
- molar heat capacity at constant pressure (320.4 K): 143.5 ± 2.2 J/K/mol
- molar heat capacity at constant pressure (325.4 K): 145.5 ± 2.2 J/K/mol
- molar heat capacity at constant pressure (330.4 K): 147.6 ± 2.3 J/K/mol
- molar heat capacity at constant pressure (335.4 K): 149.8 ± 2.3 J/K/mol
- molar heat capacity at constant pressure (340.4 K): 151.8 ± 2.3 J/K/mol
- molar heat capacity at constant pressure (345.4 K): 154.1 ± 2.4 J/K/mol
- molar heat capacity at constant pressure (350.4 K): 156.2 ± 2.4 J/K/mol
- molar heat capacity at constant pressure (355.4 K): 158.2 ± 2.4 J/K/mol
- molar heat capacity at constant pressure (360.4 K): 160.3 ± 2.5 J/K/mol
- molar heat capacity at constant pressure (365.4 K): 162.3 ± 2.5 J/K/mol
- molar heat capacity at constant pressure (370.4 K): 164.2 ± 2.6 J/K/mol
- molar heat capacity at constant pressure (375.4 K): 165.9 ± 2.6 J/K/mol
- molar heat capacity at constant pressure (380.4 K): 168 ± 2.6 J/K/mol
- molar heat capacity at constant pressure (385.4 K): 170.1 ± 2.7 J/K/mol
- molar heat capacity at constant pressure (390.4 K): 172.1 ± 2.7 J/K/mol
- molar heat capacity at constant pressure (395.5 K): 173.8 ± 2.7 J/K/mol
- molar heat capacity at constant pressure (400.5 K): 175.6 ± 2.7 J/K/mol
- molar heat capacity at constant pressure (405.5 K): 177.5 ± 2.7 J/K/mol
